Test results as given in paper PMC10560666, “Four new triterpene saponins from Cephalaria speciosa and their potent cytotoxic and immunomodulatory activities” (Scientific Reports, 2023).
Marks after values point to notes of the source that are not given here.

Key:
[1] = test system: MDA-MB-231 human breast cancer cells; experiment: MTT cytotoxicity on MDA-MB-231; assay type: cell-based; conditions: mean ± standard deviation, n = 3, – = Not detected
Experimental: (§1) The human leukemia monocyte cell line (THP-1), human lung adenocarcinoma cell line (A549), human breast cancer cells (MDA-MB231), human prostate adenocarcinoma cells (PC3), human malignant glioma cell line (U87MG), human cervical gland carcinoma cells (HeLa), human hepatocellular carcinoma cells (HEP-G2) and normal human lung fibroblast cells (CCD-34-LU) as a healthy cell line in our stock used in this study were purchased from American Type Culture Collection (ATCC). THP-1 cells were cultured in Roswell Park Memorial Institute (RPMI 1640) medium and MDA-MB231, PC3, U87 MG, HeLa, HEP-G2, and CCD-34-LU cells cultivated in Dulbecco’s Modified Eagle’s Medium/Nutrient Mixture F-12 (DMEM/F12) (Gibco, USA) medium supplemented with 10% FBS (Gibco, USA), 100U/mL of penicillin 100 µg/mL of streptomycin (Gibco, USA), and 2 mM L-glutamine (Gibco, USA).
(§2) Cytotoxicity of saponins (1–4) and their prosapogenins (2a–4a) were tested against A549, MDA-MB-231, PC-3, U87MG, HeLa, HepG-2 cancer cells and CCD34-Lu healthy cell line using MTT [3-(4,5-dimethylthiazole-2-yl)-2,5-diphenyltetrazolium bromide)] assay (Acros Organics, New Jersey, USA)[11], [23]. For this purpose, 1 × 10^5 cells/mL of all the cell lines were seeded in 96-well plates (Corning, USA) and cultivated in the at 37 °C overnight. After the incubation, the cells were incubated with different concentrations of saponins (50, 5, and 0.5 µg/mL), and doxorubicin (Sigma, USA) (20, 2, and 0.2 µg/mL) for 48 h at 37 °C. Then, the MTT was added as 20 μL (from the stock concentration of 2.5 mg/mL) to all wells and further incubated for 4 h at 37 °C. Following the incubation, the medium was removed and 150 µL DMSO was added to dissolve the formed formazan crystals. After the formazan crystals were completely dissolved, the optical density (OD) was measured at 570 nm with an UV/Vis microplate spectrophotometer (Thermo Fisher Scientific, USA). All data are the results of at least three independent experiments carried out in triplicate. Data are presented as mean ± standard error of the mean (SEM) of samples. The IC50 value was calculated using the GraphPad Prism 8 (USA) program based on the calculated percent viability values and absorbance values. The percentage of viability was determined by Eq. (1):1 %Viablecells=absorbanceoftreatedcells-absorbanceofblank/absorbanceofcontrol-absorbanceofblank×100

[2] = test system: THP-1 originated-macrophage; experiment: MTT cytotoxicity on THP-1 originated macrophages; assay type: cell-based, human; conditions: mean ± standard deviation, n = 3, – = Not detected
[3] = test system: HeLa human cervical gland carcinoma cells; experiment: MTT cytotoxicity on HeLa; assay type: cell-based; conditions: 48 h, mean ± standard deviation, n = 3, – = Not detected
Experimental: as §1, §2

[4] = test system: CCD-34Lu normal human lung fibroblast cells; experiment: MTT cytotoxicity on CCD-34Lu healthy cells; assay type: cell-based; conditions: 48 h, mean ± standard deviation, n = 3, – = Not detected
Experimental: as §1, §2

[5] = test system: HepG-2 human hepatocellular carcinoma cells; experiment: MTT cytotoxicity on HepG-2; assay type: cell-based; conditions: mean ± standard deviation, n = 3, – = Not detected
Experimental: as §1, §2

[6] = test system: A549 human lung adenocarcinoma cell line; experiment: MTT cytotoxicity on A549; assay type: cell-based; conditions: mean ± standard deviation, n = 3, – = Not detected
Experimental: as §1, §2

[7] = test system: PC-3 human prostate adenocarcinoma cells; experiment: MTT cytotoxicity on PC-3; assay type: cell-based; conditions: 48 h, mean ± standard deviation, n = 3, – = Not detected
Experimental: as §1, §2

[8] = test system: U87MG human malignant glioma cell line; experiment: MTT cytotoxicity on U87MG; assay type: cell-based; conditions: 48 h, mean ± standard deviation, n = 3, – = Not detected
Experimental: as §1, §2

[9] = test system: THP-1 derived macrophage cells; experiment: Macrophage polarization by flow cytometry (CD11b, CD80, CD163 MFI); assay type: cell-based, human; conditions: saponin 3 µg/mL, 24 h, PMA-differentiated THP-1, mean ± SD, n = 3
Experimental: To differentiate THP-1 cells into M0-THP-1, cells were seeded at an initial concentration of 1 × 10^6 cells/mL in 6-well plates (Corning, USA) and treated with 15 ng/mL phorbol 12-myristate 13—acetate (PMA, Sigma USA). Then incubate at 5% CO2, 37 °C for 48 h[24]. To evaluate the potential of saponins with/without infectious bronchitis virus (IBV) D274 antigen on macrophage polarization, THP-1 cells were treated with saponins at 3 µg/mL and then incubated for 24 h with or without 4 µL of inactivated IBV D274 antigens (final titer of 1 HA). […] Based on the results of our previous research, the saponin concentration was selected as a non-cytotoxic concentration. At the end of the incubation period, the cells were collected by trypsinization and washed three times with PBS. Following, 1 µL of PE anti-human CD80 (Biolegend, CA), FITC anti-human CD163 (Biolegend, CA), and FITC anti-human CD11b (Biolegend, CA) antibodies were added into the cells pellet and incubated for 45 min at room temperature in the dark. The cells pellets underwent two PBS washes following incubation. Finally, the cells were subsequently analyzed by flow cytometry (BD Accuri, C5). 1 × 10^4 cells were counted for each sample group using flow cytometry. All data are the results of at least three independent experiments carried out in triplicate. Data are presented as mean ± standard error of the mean (SEM) of samples. The untreated stained macrophage cells with anti-human CD80, FITC anti-human CD163, and FITC anti-human CD11b were compared with the results of treated cells to obtain from M0 polarization to M1 and M2 or both.
Figure 2 (a) Saponins without antigen treatment, (b) Saponins treated with antigen. THP-1 cells were treated with 15 ng/ml PMA and 3 µg/ml saponins and 1 HA titer of IBV D274 induced in the saponins with antigen group for 24 h incubation. The macrophage polarization was determined with flow cytometry. Each value represents the mean ± standard deviation of three independents measurements. (P < 0.05*, P < 0.01**, P < 0.001***).

[10] = with inactivated IBV D274 antigen (1 HA)

SMILES	IC50 ([1]; Homo sapiens, MDA-MB-231, 48 h) [µM]	IC50 ([2]; Homo sapiens, THP-1, 48 h) [µM]	IC50 ([3]; Homo sapiens, HeLa) [µM]	IC50 ([4]; Homo sapiens, Fibroblast) [µM]	IC50 ([5]; Homo sapiens, HepG2, 48 h) [µM]	IC50 ([6]; Homo sapiens, A549, 48 h) [µM]	IC50 ([7]; Homo sapiens) [µM]	IC50 ([8]; Homo sapiens, U-87 MG) [µM]	MFI of CD 11b (M0 marker) [9, 10]	MFI of CD80 (M1 marker) [9, 10]	MFI of CD 11b (M0 marker) ([9]; without antigen)	MFI of CD80 (M1 marker) ([9]; without antigen)	MFI of CD163 (M2 marker) ([9]; without antigen)	MFI of CD163 (M2 marker) [9, 10]	also measured
COc1cccc2c1C(=O)c1c(O)c3c(c(O)c1C2=O)C[C@@](O)(C(=O)CO)C[C@@H]3O[C@H]1C[C@H](N)[C@H](O)[C@H](C)O1 [Doxorubicin, doxorubicin, reference compound]	70 ± 0.02	6.84 ± 0.18	23.95 ± 0.02	33.98 ± 0.02	36.85 ± 0.02	40.01 ± 0.02	4.23 ± 0.02	11.09 ± 0.02	–	–	–	–	–	–	–
C[C@@H]1O[C@@H](O[C@H]2[C@H](O[C@H]3CC[C@@]4(C)C(CC[C@]5(C)C4CC=C4C6CC(C)(C)CC[C@]6(C(=O)O)CC[C@]45C)[C@]3(C)CO)OC[C@@H](O)[C@@H]2O)[C@H](O)[C@H](O)[C@H]1O (stereo partly drawn) [Compound 3a, 3-O-α-L-rhamopyranosyl-(1 → 2)-β-D-xylopyranosyl hederagenin]	> 66.6	> 66.6	> 66.6	> 66.6	> 66.6	> 66.6	> 66.6	> 66.6	29,092.45 ± 852.78	4911.00 ± 224.16	29,092.75 ± 2580.19	4,248.00 ± 137.13	6,408.00 ± 195.24*	–	IC50, THP-1 originated-macrophage ([2]; 48 h): did not have a cytotoxic effect
C[C@@H]1O[C@@H](O[C@H]2[C@H](O[C@H]3CC[C@@]4(C)[C@@H](CC[C@]5(C)[C@@H]4CC=C4[C@@H]6CC(C)(C)CC[C@]6(C(=O)O)CC[C@]45C)[C@]3(C)CO)O[C@H](CO)[C@H](O)[C@@H]2O)[C@H](O)[C@H](O)[C@H]1O [Compound 4a, 3-O-α-L-rhamopyranosyl-(1 → 2)-β-D-galactopyranosyl hederagenin]	–	–	–	–	–	–	–	–	30,124.70 ± 913.74	4604.40 ± 128.49	30,031.76 ± 1486.58	4,552.00 ± 947.76	–	–	IC50 ([1]; 48 h): 8.43 ± 0.15 µM; IC50 ([2]; 48 h): 35.7 ± 4.9 µM; IC50 [3]: 16.3 ± 4.75 µM; IC50 [4]: > 64 µM; IC50 ([5]; 48 h): > 64 µM; IC50 ([6]; 48 h): 8.13 ± 0.01 µM; IC50 [7]: > 64 µM; IC50 [8]: > 64 µM
C[C@@H]1O[C@@H](O[C@H]2[C@H](O[C@H]3CC[C@@]4(C)C(CC[C@]5(C)C4CC=C4C6CC(C)(C)CC[C@]6(C(=O)O[C@@H]6O[C@H](CO[C@@H]7O[C@H](CO)[C@@H](O)[C@H](O)[C@H]7O)[C@@H](O)[C@H](O)[C@H]6O)CC[C@]45C)[C@]3(C)CO)OC[C@@H](O)[C@@H]2O)[C@H](O)[C@H](O)[C@H]1O (stereo partly drawn) [Compound 3, 3-O-α-L-rhamnopyranosyl-(1 → 2)-β-D-xylopyranosyl-hederagenin-28-O-β-D-glucopyranosyl-(1 → 6)-β-D-glucopyranosyl ester]	> 46.5	> 46.5	> 46.5	> 46.5	> 46.5	> 46.5	> 46.5	> 46.5	29,545.10 ± 906.36	4564.51 ± 138.81	28,092.69 ± 1435.47	4,549.73 ± 913.74	6,655.82 ± 206.67*	8303.34 ± 245.1**	–
C[C@@H]1O[C@@H](O[C@H]2[C@H](O[C@H]3CC[C@@]4(C)C(CC[C@]5(C)C4CC=C4C6CC(C)(C)CC[C@]6(C(=O)O[C@@H]6O[C@H](CO[C@@H]7O[C@H](CO)[C@@H](O)[C@H](O)[C@H]7O)[C@@H](O)[C@H](O)[C@H]6O)CC[C@]45C)C3(C)C)O[C@H](CO)[C@H](O)[C@@H]2O)[C@H](O)[C@H](O)[C@H]1O (stereo partly drawn) [Compound 2, 3-O-α-L-rhamnopyranosyl-(1 → 2)-β-D-galactopyranosyl-oleanoic acid-28-O-β-D-glucopyranosyl-(1 → 6)-β-D-glucopyranosyl ester]	> 45.9	> 45.9	> 45.9	> 45.9	> 45.9	> 45.9	> 45.9	> 45.9	33,053.20 ± 951.60	4516.00 ± 223.23	29,875.39 ± 3311.75	3,629.71 ± 142.80	6,206.45 ± 185.19	7441.00 ± 423.23	–
